Reference: patent US20240261292A1, “COMBINATION THERAPIES” (Janssen Pharmaceutica NV, priority 2021, published 2024)

Assays:
[1] = test system: OCI-AML3 cells; test: In vitro proliferation (spheroid, Incucyte), menin-MLL inhibitor with DHODH inhibitor, OCI-AML3; format: cell-based, human; conditions: 8 days
Text: Spheroid-like growth was monitored in real-time by non-invasive live-cell imaging using the 4× objective of the Incucyte ZOOM live cell imaging system (Essen BioScience), and acquiring images on Day 8. […] The DMSO content was normalized to 0.3% and the percent confluence from the DMSO well was used as baseline response. […] Data from 2 independent experiments from MOLM-13 or 3 independent experiments from OCI-AML3 cells were pooled and analyzed.

[2] = test system: MOLM-13 tumors; test: Efficacy of menin-MLL inhibitor in combination with DHODH inhibitor in MOLM-13 (KMT2A-r) IV model; format: in vivo; conditions: MOLM-13 IV, NSG mice
Text: 15) In Vivo Efficacy of Menin-MLL Inhibitor in Combination with DHODH Inhibitor in Disseminated Models of Human Acute Myeloid Leukemia (MOLM-13 and OCI-AML) 15A) Efficacy of Menin-MLL Inhibitor in Combination with DHODH Inhibitor in MOLM-13 (KMT2A-r) IV Model in NSG Mice
Day 0 is the day of tumor cell implantation and study initiation. In the MOLM-13 efficacy study, mice bearing IV MOLM-13 xenograft tumors were randomly assigned to treatment groups 5 days post-tumor cell engraftment.

[3] = test system: OCI-AML3 tumors; test: Efficacy of menin-MLL inhibitor in combination with DHODH inhibitor in OCI-AML3 (NPM1c) IV model; format: in vivo; conditions: NSG mice
Text: 15B) Efficacy of Menin-MLL Inhibitor in Combination with DHODH Inhibitor in OCI-AML3 (NPM1c) IV Model in NSG Mice In the OCI-AML3 efficacy study, mice bearing IV OCI-AML3 xenograft tumors were randomly assigned to treatment groups 5 days post-tumor cell engraftment.

[4] = test system: OCI-AML3 cells; test: Proliferation assay (spheroid), OCI-AML3; format: cell-based, human; conditions: 8 days
Procedure: The anti-proliferative effect of menin/MLL protein/protein interaction inhibitor test compounds was assessed inhuman leukemia cell lines. The cell line MOLM-14 harbors a MLL translocation and expresses the MLL fusion protein MLL-AF9, respectively, as well as the wildtype protein from the second allele. OCI-AML3 cells that carry the NPM1c gene mutation were also tested. […] KO-52 was used as a control cell line containing two MLL (KMT2A) wildtype alleles in order to exclude compounds that display general cytotoxic effects.
KO-52 and OCI-AML3 cell lines were propagated in alpha-MEM (Sigma Aldrich) supplemented with 20% heat-inactivated fetal bovine serum (HyClone), 2 mM L-glutamine (Sigma Aldrich) and 50 μg/ml gentamycin (Gibco).
In order to assess the anti-proliferative effects, 200 MOLM-14 cells, 200 OCI-AML3 cells or 300 KO-52 cells were seeded in 200 μl media per well in 96-well round bottom, ultra-low attachment plates (Costar, catalogue number 7007). Cell seeding numbers were chosen based on growth curves to ensure linear growth throughout the experiment. Test compounds were added at different concentrations and the DMSO content was normalized to 0.3%. Cells were incubated for 8 days at 37° C. and 5% CO2. Spheroid like growth was measured in real-time by live-cell imaging (IncuCyteZOOM, Essenbio, 4× objective) acquiring images at day 8. Confluence (%) as a measure of spheroid size was determined using an integrated analysis tool.
In order to determine the effect of the test compounds over time, the confluence in each well as a measure of spheroid size, was calculated. Confluence of the highest dose of a reference compound was used as baseline for the LC (Low control) and the confluence of DMSO treated cells was used as 0% cytotoxicity (High Control, HC).
HC=High Control: Mean confluence (%) (DMSO treated cells);
Dose-response equation was used for the plot of % Effect vs Log10 compound concentration with a variable slope and fixing the maximum to 100% and the minimum to 0%. 2b) MEIS1 mRNA Expression Assay

[5] = test system: iCell Cardiomyocytes2 (hSC-CMs); test: Ca2+-fluorescence assay in human pluripotent stem cell-derived cardiomyocytes (CTCM human); format: cell-based; design: key to Hazard Scoring Color @ 0.1 μM / Hazard Scoring Color @ 0.2 μM / Hazard Scoring Color @ 0.5 μM / Hazard Scoring Color @ 1 μM / Hazard Scoring Color @ 2.5 μM / Hazard Scoring Color @ 5 μM / Hazard Scoring Color @ 0.3 μM / Hazard Scoring Color @ 3 μM / Hazard Scoring Color @ 10 μM / Hazard Scoring Color @ 30 μM: Green: No concern; Yellow: Low concern; Red: High concern; Black: Very high concern due to arrhythmic events
Procedure: 7) Cardio-Electrophysiological Effects of the Testing Compounds in Synchronously Beating Human Pluripotent Stem Cell-Derived Cardiomyocytes (hSC-CMs) Using a Ca^2+-Fluorescence Assay (CTCM Human)
Compounds were tested in the 96-well plates.
Compounds were tested at 0.1 μM, 0.2 μM, 0.5 μM, 1 μM, 2.5 μM and 5 μM (n=4 per dose) on Cor.4U®-Cardiomyocytes or on iCell® Cardionyocytes2.
Alternatively, compounds were tested at 0.1 μM, 0.3 μM; 1 μM, 3 μM, 10 μM and 30 μM (n=4 per dose) mostly on iCell® Cardiomyocytes2.
Vehicle control: Dimethylsulfoxide (DMSO). The solutions of the compound in DMSO or its solvent (final concentration of 0.1% DMSO; n=8).
Tested compounds were dissolved in DMSO at 1000-fold the intended concentrations. A compound “mother-plate” was made, containing the test compounds and positive and negative controls at 1000-fold the final concentrations. At the experiment day, these stock solutions were diluted with Tyrode (Sigma), supplemented with 10 mM HEPES (Gibco), to 2-fold the intended concentration (in round bottom compound plates). Final DMSO concentration in test solutions and vehicle control was 0.1%.
hSC-CMs (Cor.4U® Cardiomyocytes) were obtained from CDI (Ncardia, Germany). Cells are pre-plated and seeded in fibronectin-coated 96-well plates at a density suited to form a monolayer and maintained in culture in a stage incubator (37° C., 5% CO2), according to the instructions of the cell provider.
Second line hSC derived cardiomyocyte called iCell® Cardiomyocytes2 were purchased from FUJIFILM Cellular Dynamics (USA). The experiments with test drugs are carried out 5 to 7 days after plating the cells onto the plate to have a living, beating monolayer of hiPSC-derived cardiomyocytes. The beating monolayer in 96-well-plates are normally taken from 2 Vials of frozen iCell® Cardiomyocytes2 (≈5 million cells/vial), which will be plated onto three 96-well plates (≈50K/well).
At least one hour before the start of the experiments the normal cell medium was replaced with Tyrode solution with Calcium dye (see below).
Cal 520 dye (AAT Bioquest) was dissolved in 11 ml of Tyrode supplemented with 10 mM HEPES and warmed up to 37 C before adding to the cells.
35 μl cell culture medium was removed from each well and replaced with 35 μl of pre-warmed Cal 520 dye solution and cell plate was incubated for 45 min at 37° C./5% CO2. Cells were incubated for 5 min at 37° C.
Spontaneous electrical activity is recorded, using Cal520™ (AAT Bioquest) calcium fluorescence-dye signalling. This dye integrates the total intracellular calcium activity over the whole well. A bottle of Ca1520 dye (50 μg, MW: 1103/mol) is dissolved with 50 μl DMSO as a stock solution of 0.9 mM. 50 μL of the stock solution of the dye was added to 10 ml Tryodes solution to have dye concentration of 4.5 μM. Subsequently, 35 μl of this dye solution was added into each well, to have a final dye concentration of 1.58 μM. The current dye protocol on this CTCM human assay was established recently (Ivan Kopljar et al, Journal of Pharmacological and toxicological methods 2018. 91: 80-86; Lu et al., Tox Sci 2019. 170 (2): 345-356).
Fluorescent signals (Ca^2+ transient morphology) were measured using the Functional Drug Screen System (FDSS/μCell; Hamamatsu, Japan) and the recordings were subsequently analyzed off-line, using appropriate software e.g., Notocord.
The cell plate was loaded into the FDSS/μCell for a test run: Ca^2+ transients were measured for 4 minutes to check for synchronous beating of the cardiomyocytes in each well. All 96 wells were measured simultaneously (sampling interval: 0.06 s, short exposure time: 10 ms; excitation wavelength 480 nm; emission wavelength 540 nm; FDSS/μCell warmed to 37° C.).
During the compound addition step, 100 μl of the respective double-concentrated test solutions was pipetted into each well simultaneously.
Data were analyzed off-line using appropriate software e.g., Notocord-Hem (version 4.3). […]

[6] = Compound 22 0.0125 mg/kg (so in the source) PO daily 28 days
[7] = Compound 22 0.063 mg/kg PO daily 28 days
[8] = Compound 22 0.125 mg/kg PO daily 28 days
[9] = Compound 22 0.25 mg/kg PO daily 28 days
[10] = efficacious dose in mouse xenograft models of 30 mg/kg, (mouse, human), estimated

CCn1c(CO)nn(-c2cc3c(C(C)C)cn(-c4ccccc4C)c(=O)c3cc2F)c1=O [Compound 22, 6-(4-Ethyl-3-(hydroxymethyl)-5-oxo-4,5-dihydro-1H-1,2,4-triazol-1-yl)-7-fluoro-4-isopropyl-2-(o-tolyl)isoquinolin-1(2H)-one]
Growth inhibition, monotherapy (in words) [1]: potent growth inhibition | % ILS [2, 6]: *125% | Median Survival [2, 6]: 40.5 | % ILS [2, 7]: *111% | Median Survival [2, 7]: 38 | % ILS [3, 8]: *60% | Median Survival [3, 8]: 41.5 | % ILS [3, 9]: *65% | Median Survival [3, 9]: 43

CCN(C(=O)c1cc(F)ccc1Oc1nncnc1N1CCC2(C1)CN([C@H](CCCN(C)CCOC)C(C)C)C2)C(C)C [Compound A1]
IC50 [4]: 80 nM | Hazard Scoring Color @ 0.1 μM ([5]; 0.1 μM, 30 min, iCell Cardiomyocytes2 (Table 12)): Green | Hazard Scoring Color @ 0.3 μM ([5]; 0.3 μM, 30 min, iCell Cardiomyocytes2 (Table 12)): Green | Hazard Scoring Color @ 1 μM ([5]; 1 μM, 30 min, iCell Cardiomyocytes2 (Table 12)): Green | Hazard Scoring Color @ 3 μM ([5]; 3 μM, 30 min, iCell Cardiomyocytes2 (Table 12)): Green | Hazard Scoring Color @ 10 μM ([5]; 10 μM, 30 min, iCell Cardiomyocytes2 (Table 12)): Green | Hazard Scoring Color @ 30 μM ([5]; 30 μM, 30 min, iCell Cardiomyocytes2 (Table 12)): yellow | Margin CTCM human 10 μM vs free Cmax [5, 10]: > 16 | Margin CTCM human 30 μM vs free Cmax [5, 10]: > 45
